Reference: paper PMC11645656, “MRGPRX4 mediates phospho-drug associated pruritus in a humanized mouse model” (Science translational medicine, 2024)
Several values for one entry are separate records, joined by “and”; a condition that tells them apart may be missing. Equal values may be shown once. *1 amine or outer side, *2 acyl side, *3 side chain or, on linkers, in order; H or OH if unused. Where a SMILES comes first, the peptide text is derived from it. Bridges are numbered along the chain shown (N, C = ends). [ ]: non-standard residue; d: D form. X1 = CC(=O)NC(C(=O)OC(C(C)C)C(N[*:1])C(=O)[*:2])C(O)C(C)C; PhLac = O=C(O)[CH](O)Cc1ccccc1; NMeT = CN[CH](C(=O)O)[CH](C)O; NMeA = CN[CH](C)C(=O)O; NMeDha = C=C(NC)C(=O)O

What was measured:
[1] = molecular target: T1, MRGPRX4 (S83) (Homo sapiens, UniProt Q96LA9, L83S); test: EC50 determination, intracellular calcium mobilization in MRGPRX4 stably expressed HEK293 cells (FLIPR Calcium 5, Flexstation-3); type: cell-based; set-up: Fig. 1D dose-response, calcium mobilization response (individual replicate) / calcium mobilization response (Fig. 1D dose-response raw data): unit not given here; details: for Fig. 1D dose-response, calcium response at Concentration (M): propofol series, individual replicate values; for Hill coefficient: dose-response curve fitting, table S1
T1 construct: expressed in transfected cells
T1 sequence (Q96LA9 whole entry L83S): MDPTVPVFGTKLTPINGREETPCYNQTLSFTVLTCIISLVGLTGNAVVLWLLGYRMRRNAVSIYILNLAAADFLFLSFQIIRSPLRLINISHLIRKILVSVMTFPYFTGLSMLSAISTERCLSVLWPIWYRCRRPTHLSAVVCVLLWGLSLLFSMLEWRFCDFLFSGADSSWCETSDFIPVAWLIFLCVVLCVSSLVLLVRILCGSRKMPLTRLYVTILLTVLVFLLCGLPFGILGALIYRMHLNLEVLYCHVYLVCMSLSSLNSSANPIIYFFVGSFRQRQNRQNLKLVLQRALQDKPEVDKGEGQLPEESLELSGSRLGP
Experimental: HEK293 cells and MRGPRX4 stably expressed HEK293 cells were seeded in 100 μl culture media on 96-well plates at a density of 40,000 cells per well and incubated overnight. The next day, the media were replaced with a dye-loading solution from the FLIPR Calcium 5 assay kit (Molecular Devices), diluted in Hank's Balanced Salt Solution (HBSS) with 20 mM HEPES, pH 7.4. After 1 h of incubation at 37°C, cells were allowed to recover for 10 min in the dark at room temperature prior to performing intracellular calcium mobilization assay in a Flexstation-3 instrument with SoftMax®Pro 7.1 software (Molecular Devices). Serial concentrations of tested drugs were prepared in HBSS/HEPES solution at 3X concentration. […] Compounds were tested in triplicates and the signals were averaged. Responses were determined by subtracting the minimum signal (at the baseline before adding the drug) from the maximum signal (obtained after drug stimulation). Four-parameter logistic (4PL) curve fit was used to plot the dose-response curves. […] Both dose-response curve fitting and EC50s calculation are computed with GraphPad Prism software (version: 6.o or above).

[2] = system: MRGPRX4-expressing HEK293 cells (Gαq signaling pathway); test: Pharmacological blocker experiments: phospho-drug evoked calcium response in MRGPRX4-expressing HEK293 cells after inhibitor preincubation; details: 30 min preincubation; 10 µM YM 254890, 20 µM U73122, 10 µM thapsigargin; stimulated with fospropofol, fosphenytoin or dexamethasone phosphate
Experimental: Various HEK293 cell lines were plated on PDL-coated glass coverslips. […] For pharmacological blocker experiments, cells were pre-incubated with signaling pathway inhibitors, including YM254890, U73122, and thapsigargin, for 30 min before imaging.
Traces of [Ca2+] from MRGPRX4-expressing HEK293 cells stimulated with (A) 1 µM
U73122 (middle), or 10 µM sarco/endoplasmic reticulum Ca2+-ATPase inhibitor thapsigargin
(right) for 30 min before imaging.
independent experiments, each performed in quadruplicate.

CC(C)c1cccc(C(C)C)c1O[C@@H]1O[C@H](C(=O)O)[C@@H](O)[C@H](O)[C@H]1O [Propofol b-D-glucuronide]
Fig. 1D dose-response, calcium response at Concentration (M) ([1]; 9.76563e-7 M): 33.404 and 17.610 and 15.299 and 5.092 and 25.748 and 35.472 and 37.279 and 14.971 and 14.062
Fig. 1D dose-response, calcium response at Concentration (M) ([1]; 1.95313e-6 M): 24.553 and 28.290 and 26.471 and 25.162 and 11.839 and 42.312 and 38.770 and 25.122 and 15.422
Fig. 1D dose-response, calcium response at Concentration (M) ([1]; 3.90625e-6 M): -0.931 and -0.509 and -0.147 and -0.531 and -0.497 and -0.558 and -1.252 and -0.171 and -0.163
Fig. 1D dose-response, calcium response at Concentration (M) ([1]; 7.8125e-6 M): -3.944 and -3.544 and -1.450 and -3.087 and -3.091 and -2.761 and -3.250 and -1.367 and -4.322
Fig. 1D dose-response, calcium response at Concentration (M) ([1]; 1.5625e-5 M): -14.193 and -2.564 and -12.325 and -15.196 and -3.788 and -10.098 and -11.561 and -10.981 and -6.540
Fig. 1D dose-response, calcium response at Concentration (M) ([1]; 3.125e-5 M): -0.025 and -0.623 and -1.002 and -0.534 and -0.882 and -0.234 and -0.728 and -0.769 and -0.154
Fig. 1D dose-response, calcium response at Concentration (M) ([1]; 6.25e-5 M): -11.462 and -7.089 and -18.181 and -19.274 and -11.464 and -5.994 and -9.636 and -15.344 and -11.752
Fig. 1D dose-response, calcium response at Concentration (M) ([1]; 0.00025 M): -8.452 and -1.759 and -25.311 and -28.879 and -1.342 and -5.301 and -7.817 and -14.781 and -12.923
Fig. 1D dose-response, calcium response at Concentration (M) ([1]; 0.0005 M): -2.705 and -17.232 and -3.163 and -5.843 and -6.495 and -10.762 and -7.609 and -4.103 and -11.388
Fig. 1D dose-response, calcium response at Concentration (M) ([1]; 0.001 M): -9.560 and -7.574 and -9.738 and -14.721 and -4.551 and -7.600 and -11.650 and -7.050 and -8.173

Cn1nnc(-c2ccc(-c3ccc(N4C[C@H](COP(=O)(O)O)OC4=O)cc3F)cn2)n1 [Tedizolid phosphate]
EC50 ([1]; MRGPRX4 stably expressed HEK293 cells, calcium mobilization, read-out: EC50): 0.157 µM
Hill coefficient [1]: 1.352

COc1ccc2c(c1)CC[C@@H]1[C@@H]2CC[C@]2(C)[C@@H](NCCCCCCN3C(=O)C=CC3=O)CC[C@@H]12 [U73122]
Effect of inhibitor on phospho-drug evoked calcium response [2]: abolished the calcium response

C=C1C(=O)NC(C)C(=O)N(C)C(C)C(=O)NC(C(OC(=O)C(NC(C)=O)C(O)C(C)C)C(C)C)C(=O)N(C)C(C(C)OC)C(=O)OC(C)C(NC(C)=O)C(=O)OC(Cc2ccccc2)C(=O)N1C (centres unmarked) [YM-254890] (Ac-T[PhLac][NMeDha]A[NMeA][X1][NMeT](Me); ester 1-C; configuration not given here)
Effect of inhibitor on phospho-drug evoked calcium response [2]: abolished the calcium response

C/C=C(/C)C(=O)O[C@H]1C(C)=C2[C@H]([C@@H]1OC(=O)CCCCCCC)[C@@](C)(OC(C)=O)C[C@H](OC(=O)CCC)[C@@]1(O)[C@H]2OC(=O)[C@@]1(C)O [thapsigargin]
Effect of inhibitor on phospho-drug evoked calcium response [2]: abolished the calcium response

Dexamethasone palmitate
Fig. 1D dose-response, calcium mobilization response (individual replicate) ([1]; Concentration 9.76563e-7 M): -18.225 and -22.739 and -7.984 and -16.162 and -15.021 and -13.070 and 2.408 and -2.265 and -6.745
Fig. 1D dose-response, calcium mobilization response (individual replicate) ([1]; Concentration 1.95313e-6 M): -6.511 and -7.350 and 3.472 and -4.164 and -15.203 and -5.200 and 2.167 and -2.706 and -6.484
Fig. 1D dose-response, calcium mobilization response (individual replicate) ([1]; Concentration 3.90625e-6 M): -3.747 and 10.479 and -10.773 and -3.912 and -11.558 and -2.335 and 1.476 and 2.520 and -1.305
Fig. 1D dose-response, calcium mobilization response (individual replicate) ([1]; Concentration 7.8125e-6 M): -30.862 and -16.831 and -16.502 and -2.263 and -11.827 and -17.176 and -5.630 and 3.868 and -9.469
Fig. 1D dose-response, calcium mobilization response (individual replicate) ([1]; Concentration 1.5625e-5 M): -23.657 and 30.652 and -26.797 and 1.282 and -0.449 and -0.613 and 8.674 and 6.385 and -0.252
Fig. 1D dose-response, calcium mobilization response (individual replicate) ([1]; Concentration 3.125e-5 M): 88.602 and 69.392 and 95.399 and 41.739 and 60.580 and 65.413 and 42.682 and 17.645 and 71.002
Fig. 1D dose-response, calcium mobilization response (individual replicate) ([1]; Concentration 6.25e-5 M): 155.837 and 167.386 and 158.681 and 72.199 and 72.835 and 105.522 and 59.878 and 78.793 and 128.090
Fig. 1D dose-response, calcium mobilization response (individual replicate) ([1]; Concentration 0.00025 M): 281.902 and 277.911 and 231.255 and 145.042 and 106.318 and 115.112 and 141.417 and 113.731 and 129.258
Fig. 1D dose-response, calcium mobilization response (individual replicate) ([1]; Concentration 0.0005 M): 346.180 and 361.547 and 346.996 and 139.147 and 134.114 and 120.302 and 148.855 and 141.620 and 226.966
Fig. 1D dose-response, calcium mobilization response (individual replicate) ([1]; Concentration 0.001 M): 354.688 and 329.354 and 273.082 and 127.830 and 137.045 and 134.530 and 140.483 and 130.182 and 155.284
Hill coefficient [1]: 1.502
